# Patent publication US20240108654A1, “COMBINATION OF A T CELL THERAPY AND A DGK INHIBITOR” (Juno Therapeutics, Inc., priority 2021, published 2024)
# Key:
# Format in all cases: cell-based, human
# [1] = system: anti-CD19 CAR-expressing T cells; assay: Rescue treatment of chronically stimulated CAR-T cells: cytokine production (MSD), 2D co-culture; settings: 48 hours 2D co-culture with K562.CD19, Granta-519, Raji
# Description: (§1) Anti-CD19 CAR-expressing T cells, produced as described in Example 1, were chronically stimulated with plate-bound CAR-specific anti-idiotypic antibody for seven days as described in Example 2, but in the absence of Compound 17 during chronic stimulation. Instead, chronically stimulated CAR T cells were treated with Compound 17 during re-challenge with CD19-expressing tumor cells, after which cytolytic activity and cytokine production were assessed.
# (§2) Supernatant was collected after 48 hours from the above co-cultures of chronically stimulated CAR-expressing T cells and CD19-expressing tumor cells. Cytokine production was measured from the supernatant by meso scale discovery (MSD) analysis of the collected cell supernatants. […] Duplicate values for cell compositions manufactured from the two different healthy donors are shown.
# [2] = system: anti-CD19 CAR-expressing T cells; assay: Cytolytic activity of CAR-T cells concurrently treated during chronic stimulation, 3D tumor spheroids; settings: concurrent treatment during chronic stimulation; A549.CD19 and Granta-519 spheroids, day 9
# Description: (§3) To simulate conditions of chronic stimulation, approximately 20,000 anti-CD19 CAR-expressing T cells of a combined CAR-T cell composition produced as described in Example 1 from two healthy adult donors were incubated with 30 μg/mL of plate-bound CAR-specific anti-idiotypic antibody (see, e.g., WO2018/023100) at 37° C. for a period of seven days. During this seven-day period, engineered CAR T cells were concurrently treated with Compound 17 (0.1-1000 nM) or a vehicle control added at day 0.
# (§4) To further assess activity of chronically stimulated cell, the chronically stimulated CAR-T cells that had been concurrently treated with DGKi were incubated with A549 CD19+ tumor spheroids or Granta-519 tumor spheroids to rechallenge the CAR-T cells at an effector to target ratio of 1:2 for up to 14 days. The tumor spheroids were engineered to express a red fluorescent dye to permit monitoring of tumor cell lysis by microscopy during the assay.
# The antigen-specific cytolytic activity of the chronically stimulated CAR-expressing T cells was assessed by monitoring fluorescence (indicative of tumor cell lysis) over time. The tumor volume (normalized to time zero) was measured as the number of red calibrated units (RCU)×μm^2 area. […] Duplicate values for cell compositions manufactured from the two different healthy donors are shown.
# [3] = system: anti-CD19 CAR-expressing T cells; assay: Rescue treatment of chronically stimulated CAR-T cells: cytolytic activity, 2D co-culture with CD19-expressing lymphoma cells; settings: rescue treatment during 2D co-culture, higher concentrations
# Description: as §1
# The chronically stimulated CAR-T cells were incubated with various CD19-expressing lymphoma cells at a 2.5:1 effector:target ratio in the presence of DGKi (0-1000 nM). The tumor cells were labeled with NucLight Red (NLR) and tumor cell number was monitored by Incucyte®.
# anti-HPV16 eTCR T cells = assay: Proliferation (cell counts) of chronically stimulated eTCR T cells re-stimulated with anti-Vbeta antibody; settings: re-stimulation 7 days with 20 μg/mL anti-Vbeta, 100 nM compound
# Text: Primary human CD4+ and CD8+ T cells were isolated from healthy donors by immunoaffinity-based methods. The isolated CD4+ and CD8+ T cells were combined and stimulated with an anti-CD3/anti-CD28 reagent, and then were transduced with a lentiviral vector encoding an anti-human papillomavirus 16 (anti-HPV16) eTCR. The nucleotide sequences encoding the beta chain and the alpha chain of the eTCR were separated by a sequence encoding a 2A ribosome skip element. Following transduction, the cells were cultured in media containing human serum and cytokines for 9-10 days prior to further assessment. In another experiment to assess activity of the DGKi to rescue or reverse exhaustion, eTCR T cells were chronically stimulated for 6 days as described above in the absence of Compound 17. […] As a control, chronically stimulated eTCR T cells were re-stimulated in the absence of Compound 17 for 7 days. At the end of the 7 day re-stimulation, cell counts were determined. […] As expected, in the absence of treatment with Compound 17, there was an overall reduction in the ability of chronically stimulated T cells to proliferate compared to fresh eTCR T cells (compare conditions (1) and (3)).
# [4] = system: anti-CD19 CAR-expressing T cells; assay: Cytokine production (MSD) of CAR-T cells concurrently treated during chronic stimulation, 2D co-culture; settings: concurrent treatment during chronic stimulation; 48 hours 2D co-culture with K562.CD19, Granta-519, Raji
# Description: as §3
# Stimulated CAR T cells were then re-challenged with CD19-expressing tumor cells or tumor spheroids in the absence of Compound 17, and cytolytic activity and cytokine production were assessed.
# as §2
# [5] = system: anti-CD19 CAR-expressing T cells; assay: T cell viability in acute stimulation assays
# [6] = system: anti-CD19 CAR-expressing T cells; assay: Cytokine production (MSD) of CAR-T cells concurrently treated during chronic stimulation, 3D tumor spheroids; settings: concurrent treatment during chronic stimulation; five days 3D co-culture with A549.CD19 and Granta-519 spheroids
# Description: as §3, §4
# (§5) Supernatant was collected at day 5 from the above tumor spheroid cultures with chronically stimulated CAR-expressing T cells. Cytokine production was measured from the supernatant by meso scale discovery (MSD) analysis of the collected cell supernatants. […] Duplicate values for cell compositions manufactured from the two different healthy donors are shown.
# [7] = system: anti-CD19 CAR-expressing T cells; assay: Rescue treatment of chronically stimulated CAR-T cells: cytokine production (MSD), 3D tumor spheroids; settings: five days 3D co-culture with A549.CD19 and Granta-519 spheroids
# Description: as §1, §5
# [8] = system: anti-CD19 CAR-expressing T cells; assay: Activation phenotype of CAR-T cells chronically stimulated with concurrent compound treatment; settings: seven-day chronic stimulation, concurrent compound 0.1-1000 nM
# Description: as §3
smiles,measurement,setting,value
"CC[C@H]1CN([C@@H](CC)c2ccc(C(F)(F)F)cc2)[C@H](CC)CN1c1nc(=O)n(C)c2ccc(C#N)nc12 [Compound 17, 4-((2S,5R)-2,5-diethyl-4-((S)-1-(4-(trifluoromethyl)phenyl)propyl)piperazin-1-yl)-1-methyl-2-oxo-1,2-dihydropyrido[3,2-d]pyrimidine-6-carbonitrile]","production of IFNγ, IL-2 and TNFα in supernatant",[1],dose-dependent increase in production of all three cytokines
same,CAR-T cell cytolytic activity (normalized tumor volume),[2],modestly reduced the cytolytic activity
same,CAR-T cell cytolytic activity (tumor cell number),[3]; Granta-519 cells,improved the cytolytic activity
same,CAR-T cell cytolytic activity (tumor cell number),[3]; K562.CD19 cells,improved the cytolytic activity
same,proliferation of eTCR T cells (cell counts),anti-HPV16 eTCR T cells,increased proliferation
same,"production of IFNγ, IL-2 and TNFα in supernatant",[4],dose-dependent increase in production of all three cytokines
same,T cell viability,[5],no impact
same,"production of IFNγ, IL-2 and TNFα in supernatant",[6],dose-dependent increase in production of all three cytokines
same,"production of IFNγ, IL-2 and TNFα in supernatant",[7],dose-dependent increase in production of all three cytokines
same,"populations of highly activated CAR-T cells (CD69, PD-1 high)",[8],increased populations of highly activated CAR-T cells
